Measurements: patent EP0500137A1, “1,2,4-Triazolo[1,5-a]pyrimidine derivatives, a process for preparing them as well as medicaments containing them and the use of them” (EGIS GYOGYSZERGYAR, priority 1991, dated 1992)

System: gastric acid secretion
Test: gastric acid secretion inhibiting effect, method of Shay (pylorus bound, free acid titrated)
Format: in vivo, Rats (Wistar breed)
Settings: given 3 hours before the operation, free acid determined 4 hours after the operation, inhibition in relation to the control
Method: Rats of both sexes (Wistar breed, weighing 180-240 g) were fastened for 48 hours. On the day of the test the pylorus of the animals was bound under ether narcosis. The test compounds were administered orally 3 hours before the operation. 4 hours after the operation the animals were anaesthetized and the stomach was removed, the content thereof was centrifuged and the amount of the free acid was determined by titration, in the presence of Töpfer reagent. The inhibition in relation to the control is calculated in percentage.

With `Clc1c2c(nc3nc(N4CCOCC4)nn13)CCCC2` [Example 12, 5-Chloro-2-morpholino-6,7,8,9-tetrahydro-1,2,4-triazolo[5,1-b]quinazoline] the Inhibition % (Dose 200 mg/kg peroral) was 85%.

In the case of `CSc1nc2nc3c(c(Cl)n2n1)CCCC3` [Example 6, 5-Chloro-2-methylthio-6,7,8,9-tetrahydro-1,2,4-triazolo[5,1-b]quinazoline], the Inhibition % (Dose 60 mg/kg peroral) is reported as 100%.

For `COc1cc(C(=S)N2CCOCC2)cc(OC)c1OC` [Trithiozine, 3,4,5-Trimethoxythio-benzoic acid morpholide, reference compound], the Inhibition % (Dose 400 mg/kg peroral) was 63%.

Compound `CSc1nc2nc3c(c(Cl)n2n1)CCC3` [Example 2, 5-Chloro-2-methylthio-6,7-dihydro-8H-cyclopenta[d]-1,2,4-triazolo[1,5-a]pyrimidine] has an Inhibition % (Dose 30 mg/kg peroral) of 73%.
